Experimental data taken from patent publication US8927709B2, “Hepatitis C virus inhibitors” (Enanta Pharmaceuticals, Inc., priority 2009, dated 2015).

Test system: HCV 1b genotype replicon
Test: HCV genotype-1b replicon assay (qRT-PCR or luciferase)
Type: cell-based
Conditions: Hepatitis C virus, HCV 1b replicon cell lines (SGR 11-7 or Huh-luc/neo-ET), a/b entries tested as mixture of the two compounds, read-out: Genotype-1b replicon EC50 Range
Description: HCV replicon cell lines (kindly provided by R. Bartenschlager) isolated from colonies as described by Lohman et. al. (Lohman et al. (1999) Science 285: 110-113, expressly incorporated by reference in its entirety) and used for all experiments. The HCV replicon has the nucleic acid sequence set forth in EMBL Accession No.: AJ242651, the coding sequence of which is from nucleotides 1801 to 8406.
The coding sequence of the published HCV replicon was synthesized and subsequently assembled in a modified plasmid pBR322 (Promega, Madison, Wis.) using standard molecular biology techniques. […]
EC50 values of single agent compounds and combinations were determined by HCV RNA detection using quantitative RT-PCR, according to the manufacturer's instructions, with a TAQMAN® One-Step RT-PCR Master Mix Reagents Kit (Cat# AB 4309169, Applied Biosystems) on an ABI Model 7500 thermocycler. The TaqMan primers used for detecting and quantifying HCV RNA were obtained from Integrated DNA Technologies. HCV RNA was normalized to GAPDH RNA levels in drug-treated cells, which was detected and quantified using the Human GAPDH Endogenous Control Mix (Applied Biosystems, AB 4310884E). […] Chemical agent cytotoxicity was evaluated using an MTS assay according to the manufacturer's directions (Promega). […]

SMILES	EC50 [nM]
COC(=O)N[C@H](C(=O)N1CCC(c2nc3cc(-c4ccc(-c5c[nH]c([C@@H]6CCCN6C(=O)[C@@H](NC(=O)OC)C(C)C)n5)cc4)ccc3[nH]2)C1)C(C)C (some centres unmarked) [Example 343]	1 to 10
COC(=O)N[C@H](C(=O)N1CCC(c2nc(-c3ccc(-c4ccc(-c5c[nH]c([C@@H]6CCCN6C(=O)[C@@H](NC(=O)OC)C(C)C)n5)cc4)cc3)c[nH]2)C1)C(C)C (some centres unmarked) [Example 345]	< 1
